This is an account of results in the METLIN SMRT retention time set (Domingo-Almenara et al. 2019).

The series can be described thus: gradient 5% acetonitrile 3 min, to 50% in 2 min, to 85% in 15 min, held 3 min, 100 µL/min. Conditions: column: Zorbax Extend-C18 2.1 x 50 mm; eluents: water / acetonitrile, 0.1% formic acid. The gist of the method: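 Over 3 months, pure standards in mixtures of ~100 molecules were run by HPLC coupled to a quadrupole time-of-flight mass spectrometer in positive and negative ionization mode. The column was a Zorbax Extend-C18 (2.1 × 50 mm, 1.8 μm) at 100 μL/min, eluted with water and acetonitrile each holding 0.1% formic acid, with 40 μL dead and 900 μL dwell volumes. Retention time was determined from adduct peaks chosen by software and checked manually.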
`CS(=O)(=O)N1CCCc2cc(C(=O)NCCCn3ccnc3)ccc21` registered an RP-LC retention time of 597 s.

`CCN1CCN(C(=O)c2cn(-c3ccc(S(=O)(=O)N4CCCC(C)C4)cn3)cn2)CC1` (centres undefined) showed an RP-LC retention time of 659 s. In the case of `CC(C)NC(=O)c1ccc2c(c1)nc(CN1CCN(C(=O)NC(C)C)CC1)n2C` it was 576 s.

`COc1ccc(Cn2nnc(C(=O)NCc3ccco3)c2-n2cccc2)cc1` yielded an RP-LC retention time of 925 s. In the case of `NC(=O)C1CCc2sc(C(=O)N3CCCCCC3)cc2C1` (centres undefined) it was 663 s; in that of `N#Cc1cccc(C(=O)N2CCC(c3cc(N)on3)CC2)c1`, 641 s. In the case of `Cc1[nH]c2ccccc2c1C(=O)C(=O)N1CC2CC(C1)c1cccc(=O)n1C2` (centres undefined) it was 612 s; in that of `COc1cc(Cl)ccc1C(=O)N1CCN(c2cc(-c3ccc(Cl)cc3)[nH]n2)CC1`, 923 s. In the case of `COc1ccccc1Oc1c(NS(=O)(=O)c2ccc(C)cn2)nc(-c2ccncc2)nc1OC` it was 870 s; in that of `CCn1cc(CN2CCC(N3CC4(CCCCC4)C3c3ccncc3)CC2)cn1` (centres undefined), 565 s; in that of `O=C(Cc1ccccc1Cl)NC(c1ccccc1)c1nnc(N2CCCCC2)o1` (centres undefined), 899 s. For the compound `CC1CCc2onc(C(=O)N3CCN(c4ccccc4)CC3)c2C1` (centres undefined), the RP-LC retention time stood at 1020 s. In the case of `O=C(NCC1CC1)c1cn(-c2ccc(S(=O)(=O)N3CCCC3)cn2)cn1` it was 762 s. In the case of `Cc1ccc(-c2cc3c(=O)n(Cc4noc(CN5CCCC(C)C5)n4)ccn3n2)cc1` (centres undefined) it was 705 s; in that of `Cc1cc(N2CCCCCC2)n2nc(CN3CCCCC3C)nc2n1` (centres undefined), 609 s. The result for `Cc1ccc(C)c(N2CCN(C(=O)c3[nH]c(C)c(S(=O)(=O)N4CCOCC4)c3C)CC2)c1` reads 928 s; that for `O=C(C1CCN(c2cncnc2N2CCCCC2)CC1)N1CCOCC1`, 593 s; that for `CCC(c1cccs1)N1C(=O)[C@H]2CN(S(=O)(=O)c3ccc(C)c(C)c3)C[C@H]2C1=O` (some centres undefined), 1070 s.

As to `Cc1ccc(CNS(=O)(=O)c2cc(-c3cc(C(F)(F)F)[nH]n3)sc2C)o1`, the RP-LC retention time came to 964 s.

`CCOc1ccc(CC(=O)N2CCCC2c2nc(-c3ccccc3Cl)no2)cc1OCC` (centres undefined) displayed an RP-LC retention time of 1050 s. The result for `Cc1ccc(-c2nc3nc(C)cc(NCc4ccc5c(c4)OCO5)n3n2)cc1` reads 892 s. The result for `Cc1ccc(C)c(Cn2nc3ccc(S(=O)(=O)N4CCCCCC4)cn3c2=O)c1` reads 1090 s; that for `CCOC(=O)c1c(N2C(=O)C3C4C=CC(O4)C3C2=O)sc2c1CCCC2` (centres undefined), 872 s. As for `CC(C)CN1CCN(C(=O)c2ccc3[nH]c4c(c3c2)CN(C(=O)C2CCC2)CC4)CC1`, the RP-LC retention time amounted to 621 s. In the case of `CC1CCN(c2cc(-n3cnc(C(=O)N4CCOCC4)c3)ncn2)CC1` it was 750 s; in that of `CC(C)n1c(N2CCCN(C(=O)COc3ccc(Cl)cc3)CC2)cc(=O)n(C(C)C)c1=O`, 914 s; in that of `Cc1ccc2c(c1)N(S(C)(=O)=O)CC(C)O2` (centres undefined), 620 s. In the case of `Cc1ccc(CNC(=O)C2(C)CN(S(C)(=O)=O)CC(=O)N2Cc2ccc(N(C)C)cc2)cc1` (centres undefined) it was 668 s; in that of `Cc1ccc(CNC(=O)c2cn3cccc(C)c3n2)cc1`, 686 s; in that of `COc1cccc(CNC(=O)CN2C(=O)NC(c3ccc(Cl)cc3)C3=C2COC3=O)c1` (centres undefined), 764 s. The result for `Cc1ccc(-c2noc(Cn3c(=O)n(CC(C)C)c(=O)c4ccccc43)n2)cc1` reads 1240 s. As to `COc1ccc(CNC(=O)C2=C3CCCN3c3ccccc3S2(=O)=O)cc1`, the RP-LC retention time turned out to be 795 s. In the case of `O=C1CC(c2ccccc2)N(S(=O)(=O)c2cccc3nsnc23)CCCCCN1` (centres undefined) it was 848 s; in that of `CCCn1c(CCNC(=O)c2ccc(C)c(C)c2)nc2cccnc21`, 705 s. In the case of `Cc1cc(C2CCCN2C(=O)Nc2ccc(C)c(Cl)c2)on1` (centres undefined) it was 893 s; in that of `COc1ccc(N2CCN(c3cc(SCC(=O)Nc4cccc(SC)c4)ncn3)CC2)cc1`, 1000 s; in that of `CCc1ccc2nc(Nc3ncc4c(n3)CC(c3ccccc3)CC4=O)nc(C)c2c1` (centres undefined), 636 s. As to `Cc1csc(-c2ccc(N3CCN(C(=O)c4cccs4)CC3)nc2)n1`, the RP-LC retention time was determined as 781 s.

Regarding `COc1ccc(CNC(=O)N2CC(Oc3ccc(-c4nc(C)no4)cc3)C2)cc1`, the RP-LC retention time amounted to 825 s.

In turn, `O=C(Cc1ccc(Cl)cc1)N1CCc2nc(-c3ccc(Cl)cc3)ncc2C1` displayed an RP-LC retention time of 1130 s. In the case of `CCOc1ccc2nc(NC(=O)c3ccc(N4CCCC4)nn3)sc2c1` it was 830 s; in that of `CCC(C)Sc1nnc(NC(=O)C2CCN(C(=O)c3cccc(F)c3)CC2)s1` (centres undefined), 877 s. The result for `Cn1c(=O)n(C)c2cc(N3CCCCC3)c(NC(=O)NC3CCCC3)cc21` reads 654 s. As for `Cc1cc(NC(=O)CC2COc3ccccc3NC2=O)ccc1Br` (centres undefined), the RP-LC retention time was determined as 791 s. In the case of `CNC(=O)c1cc(COc2ccc(NC(=O)c3ccc(Br)cc3)cc2)on1` it was 830 s; in that of `Cc1cccc(NC(=O)C2CCN(C(=O)C3Sc4ccccc4NC3=O)CC2)c1C` (centres undefined), 753 s; in that of `COc1ccc(N2CCN(C(=O)Cn3ccc4c(SCc5ccccc5)nccc43)CC2)cc1`, 743 s. As to `CCOC(=O)c1sc(NC(=O)C(C)(C)C)nc1-c1ccccc1`, the RP-LC retention time was found to be 592 s. In the case of `CN(C)c1ccc(CNS(=O)(=O)c2cc(-c3nc(C(C)(C)C)cs3)cs2)cc1` it was 1100 s; in that of `COc1cc(CNC(=O)C2CCCN(c3nccc(C)n3)C2)cc(OC)c1OC` (centres undefined), 655 s. For `CCCCNC(=O)C1CCN(C(=O)c2cc3ccsc3n2Cc2cccc(OC)c2)CC1`, the RP-LC retention time was found to be 948 s.

Take `CCOC(=O)Cc1ccc(NC(=O)NCCc2c(C)nn(C)c2C)cc1`: the RP-LC retention time is 644 s. In the case of `O=C(Nc1ccc(Cl)c(N2CCCS2(=O)=O)c1)c1ccccc1C(F)(F)F` it was 791 s; in that of `Cc1ccc(CCNC(=O)Cn2c(C)nc3onc(C)c3c2=O)cc1`, 787 s; in that of `COc1ccc(S(=O)(=O)CC(=O)Nc2nnc(-c3cc(C)oc3C)o2)cc1`, 721 s. For the compound `CCCCN(CC)S(=O)(=O)c1cc(-c2nnc(C)o2)co1`, the RP-LC retention time was 869 s.

`COc1ccc(CC(=O)N2CCC3(CC2)NC(=O)c2ccccc2N3C)cc1OC` registered an RP-LC retention time of 711 s. The result for `COc1ccc(-c2nc(Cn3cnc4nc5c(cc4c3=O)CC(C)CC5)c(C)o2)cc1OC` (centres undefined) reads 870 s.

As for `O=C1NC2(CCN(C(=O)c3ccccc3F)CC2)N=C1c1ccc(Cl)cc1`, the RP-LC retention time turned out to be 871 s.
